Source: ChEMBL document CHEMBL4402545, “Subtype Selective γ-Aminobutyric Acid Type A Receptor (GABAAR) Modulators Acting at the Benzodiazepine Binding Site: An Update” (J Med Chem, 2020)
Blank lines part the entries; values can stand above or below the compound they belong to.

Key:
[1] = target: T1, Gamma-aminobutyric acid receptor subunit alpha-5 (Homo sapiens) (UniProt P31644); experiment: Binding affinity to GABA-A alpha5 (unknown origin) assessed as increase in induced current relative to control
T1 sequence (whole entry): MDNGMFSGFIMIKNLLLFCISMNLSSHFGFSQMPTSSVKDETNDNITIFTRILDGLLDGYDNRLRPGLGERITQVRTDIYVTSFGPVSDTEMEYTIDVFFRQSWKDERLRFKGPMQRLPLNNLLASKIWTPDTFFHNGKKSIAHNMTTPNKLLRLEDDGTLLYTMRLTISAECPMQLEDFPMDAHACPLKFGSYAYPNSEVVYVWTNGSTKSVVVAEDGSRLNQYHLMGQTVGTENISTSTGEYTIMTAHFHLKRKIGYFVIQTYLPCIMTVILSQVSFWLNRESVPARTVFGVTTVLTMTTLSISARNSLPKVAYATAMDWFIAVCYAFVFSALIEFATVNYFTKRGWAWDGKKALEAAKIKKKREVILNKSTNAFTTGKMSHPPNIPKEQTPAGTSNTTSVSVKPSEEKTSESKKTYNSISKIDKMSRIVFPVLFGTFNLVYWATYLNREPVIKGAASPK

[2] = target: T2, Gamma-aminobutyric acid receptor subunit alpha-2 (Homo sapiens) (UniProt P47869); experiment: Binding affinity to GABA-A alpha2 (unknown origin) assessed as increase in induced current relative to control
T2 sequence (whole entry): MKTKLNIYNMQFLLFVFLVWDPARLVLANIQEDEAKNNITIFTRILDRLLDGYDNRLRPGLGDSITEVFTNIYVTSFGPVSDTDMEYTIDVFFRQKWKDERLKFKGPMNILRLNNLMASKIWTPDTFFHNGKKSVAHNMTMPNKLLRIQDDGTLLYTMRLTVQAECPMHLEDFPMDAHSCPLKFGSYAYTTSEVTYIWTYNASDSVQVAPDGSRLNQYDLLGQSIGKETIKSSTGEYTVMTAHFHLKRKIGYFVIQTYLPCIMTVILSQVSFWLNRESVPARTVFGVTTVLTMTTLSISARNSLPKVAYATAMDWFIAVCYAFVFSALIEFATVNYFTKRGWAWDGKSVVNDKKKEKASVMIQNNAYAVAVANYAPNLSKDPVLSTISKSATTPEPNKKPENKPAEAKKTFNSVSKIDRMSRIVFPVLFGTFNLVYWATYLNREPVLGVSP

[3] = target: T3, GABA-A receptor; alpha-3/beta-3/gamma-2 (Homo sapiens, UniProt P18507+P28472+P34903); experiment: Displacement of [3H]-Ro15-1788 from human GABAA alpha3beta3gamma2 expressed in HEK293 cell membranes incubated for 40 or 90 mins by liquid scintillation counting method
T3 sequence (P18507 whole entry): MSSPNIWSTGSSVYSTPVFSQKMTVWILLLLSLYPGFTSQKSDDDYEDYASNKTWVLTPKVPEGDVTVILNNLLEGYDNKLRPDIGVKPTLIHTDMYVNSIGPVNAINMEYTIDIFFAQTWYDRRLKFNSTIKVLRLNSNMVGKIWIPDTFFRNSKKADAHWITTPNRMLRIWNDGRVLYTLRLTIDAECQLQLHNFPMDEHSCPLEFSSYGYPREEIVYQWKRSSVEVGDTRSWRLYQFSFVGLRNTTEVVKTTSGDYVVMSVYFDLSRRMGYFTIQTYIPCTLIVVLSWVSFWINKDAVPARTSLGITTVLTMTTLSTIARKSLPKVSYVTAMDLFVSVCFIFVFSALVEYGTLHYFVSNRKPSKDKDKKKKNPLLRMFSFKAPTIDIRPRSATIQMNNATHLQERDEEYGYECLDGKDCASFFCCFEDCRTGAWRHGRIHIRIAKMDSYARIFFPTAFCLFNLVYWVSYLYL
T3 sequence (P28472 whole entry): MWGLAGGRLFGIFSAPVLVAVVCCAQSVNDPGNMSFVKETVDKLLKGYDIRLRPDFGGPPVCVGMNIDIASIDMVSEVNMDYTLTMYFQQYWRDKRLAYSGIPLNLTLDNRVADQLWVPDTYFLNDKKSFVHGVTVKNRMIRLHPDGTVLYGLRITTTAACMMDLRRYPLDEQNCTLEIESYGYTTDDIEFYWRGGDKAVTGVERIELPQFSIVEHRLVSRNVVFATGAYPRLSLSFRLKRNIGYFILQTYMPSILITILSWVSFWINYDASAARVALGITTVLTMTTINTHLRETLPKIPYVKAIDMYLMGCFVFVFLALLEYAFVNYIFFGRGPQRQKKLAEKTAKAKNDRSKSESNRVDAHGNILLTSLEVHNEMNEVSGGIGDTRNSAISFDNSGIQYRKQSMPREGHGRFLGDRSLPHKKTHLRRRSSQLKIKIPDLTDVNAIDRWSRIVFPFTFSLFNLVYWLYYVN
T3 sequence (P34903 whole entry): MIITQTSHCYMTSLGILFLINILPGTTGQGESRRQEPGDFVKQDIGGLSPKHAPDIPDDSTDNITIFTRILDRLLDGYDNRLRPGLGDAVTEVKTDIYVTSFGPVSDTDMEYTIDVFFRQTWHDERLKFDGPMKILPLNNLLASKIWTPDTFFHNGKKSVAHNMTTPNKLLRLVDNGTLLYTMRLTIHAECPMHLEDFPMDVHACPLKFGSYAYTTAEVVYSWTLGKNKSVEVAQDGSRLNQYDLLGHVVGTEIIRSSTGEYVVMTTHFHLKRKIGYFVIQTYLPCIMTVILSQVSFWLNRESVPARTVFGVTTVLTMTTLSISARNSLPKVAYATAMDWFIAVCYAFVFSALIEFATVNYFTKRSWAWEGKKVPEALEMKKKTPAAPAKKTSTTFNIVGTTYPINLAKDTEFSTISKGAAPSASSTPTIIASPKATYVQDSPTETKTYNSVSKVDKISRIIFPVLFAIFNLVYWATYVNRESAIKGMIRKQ

[4] = target: T4, GABA-A receptor; alpha-5/beta-3/gamma-2 (Homo sapiens, UniProt P18507+P28472+P31644); experiment: Displacement of [3H]-Ro15-1788 from human GABAA alpha5beta3gamma2 expressed in HEK293 cell membranes incubated for 40 or 90 mins by liquid scintillation counting method
T4 sequence (P18507 whole entry): T3 sequence (P18507 whole entry)
T4 sequence (P28472 whole entry): T3 sequence (P28472 whole entry)
T4 sequence (P31644 whole entry): T1 sequence (whole entry)

[5] = system: Rattus norvegicus; experiment: In vivo receptor occupancy at GABAA receptor in po dosed Wistar rat brain assessed as brain concentration causing reduction in [3H]Flunitrazepam receptor labeling by scintillation counting method; type: functional
[6] = target: T5, Gamma-aminobutyric acid receptor subunit alpha-3 (Homo sapiens) (UniProt P34903); experiment: Binding affinity to GABA-A alpha3 (unknown origin) assessed as increase in induced current relative to control
T5 sequence (whole entry): T3 sequence (P34903 whole entry)

[7] = target: T6, Gamma-aminobutyric acid receptor subunit alpha-1 (Homo sapiens) (UniProt P14867); experiment: Binding affinity to GABA-A alpha1 (unknown origin) assessed as increase in induced current relative to control
T6 sequence (whole entry): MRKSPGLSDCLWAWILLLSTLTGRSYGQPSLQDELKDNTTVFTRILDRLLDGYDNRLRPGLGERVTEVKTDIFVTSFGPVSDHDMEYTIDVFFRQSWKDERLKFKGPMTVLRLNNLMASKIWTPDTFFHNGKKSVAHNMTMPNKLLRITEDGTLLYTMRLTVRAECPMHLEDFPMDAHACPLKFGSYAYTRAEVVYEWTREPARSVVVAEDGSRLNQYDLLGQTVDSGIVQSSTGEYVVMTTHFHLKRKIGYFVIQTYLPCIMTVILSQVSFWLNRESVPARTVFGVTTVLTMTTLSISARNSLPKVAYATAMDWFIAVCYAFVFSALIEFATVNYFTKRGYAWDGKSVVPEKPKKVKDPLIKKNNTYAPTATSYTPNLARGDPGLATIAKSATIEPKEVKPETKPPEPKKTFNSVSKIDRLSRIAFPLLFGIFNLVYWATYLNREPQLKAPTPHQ

[8] = target: T7, GABA-A receptor; alpha-1/beta-3/gamma-2 (Homo sapiens, UniProt P14867+P18507+P28472); experiment: Displacement of [3H]-Ro15-1788 from human GABAA alpha1beta3gamma2 expressed in HEK293 cell membranes incubated for 40 or 90 mins by liquid scintillation counting method
T7 sequence (P14867 whole entry): T6 sequence (whole entry)
T7 sequence (P18507 whole entry): T3 sequence (P18507 whole entry)
T7 sequence (P28472 whole entry): T3 sequence (P28472 whole entry)

[9] = Displacement of [3H]-Ro15-1788 from human GABAA alpha2beta3gamma2 expressed in HEK293 cell membranes incubated for 40 or 90 mins by liquid scintillation counting method
[10] = system: Mus musculus; experiment: In vivo receptor occupancy at GABAA receptor in po dosed mouse assessed as brain concentration causing 50% reduction in [3H]-flumazenil receptor labeling; type: functional
[11] = target: T6, Gamma-aminobutyric acid receptor subunit alpha-1 (Homo sapiens); experiment: Negative allosteric modulation of GABA-A alpha1 (unknown origin) assessed as reduction in DMCM induced current relative to DMCM
[12] = target: T8, Gamma-aminobutyric acid receptor subunit alpha-2 (Homo sapiens, UniProt P47869); experiment: Binding affinity to GABA-A alpha2 (unknown origin)
T8 sequence (P47869 whole entry): T2 sequence (whole entry)

[13] = system: Homo sapiens; experiment: In vivo receptor occupancy at GABAA receptor in po dosed human assessed as plasma concentration causing 50% reduction in [11C]-flumazenil receptor labeling; type: functional
[14] = target: T9, Gamma-aminobutyric acid receptor subunit alpha-3 (Homo sapiens, UniProt P34903); experiment: Binding affinity to GABA-A alpha3 (unknown origin)
T9 sequence (P34903 whole entry): T3 sequence (P34903 whole entry)

[15] = target: T10, Gamma-aminobutyric acid receptor subunit alpha-1 (Homo sapiens, UniProt P14867); experiment: Binding affinity to GABA-A alpha1 (unknown origin)
T10 sequence (P14867 whole entry): T6 sequence (whole entry)

[16] = target: T1, Gamma-aminobutyric acid receptor subunit alpha-5 (Homo sapiens); experiment: Binding affinity to GABA-A alpha5 (unknown origin) assessed as reduction in DMCM induced current relative to DMCM
[17] = target: T11, Gamma-aminobutyric acid receptor subunit alpha-5 (Homo sapiens, UniProt P31644); experiment: Binding affinity to GABA-A alpha5 (unknown origin)
T11 sequence (P31644 whole entry): T1 sequence (whole entry)

[18] = target: T5, Gamma-aminobutyric acid receptor subunit alpha-3 (Homo sapiens); experiment: Binding affinity to GABA-A alpha3 (unknown origin) assessed as reduction in DMCM induced current relative to DMCM
[19] = target: T2, Gamma-aminobutyric acid receptor subunit alpha-2 (Homo sapiens); experiment: Binding affinity to GABA-A alpha2 (unknown origin) assessed as reduction in DMCM induced current relative to DMCM
[20] = system: Rattus norvegicus; experiment: In vivo receptor occupancy at GABAA receptor in po dosed rat assessed as brain concentration causing 50% reduction in [3H]-flumazenil receptor labeling; type: functional
[21] = system: Homo sapiens; experiment: In vivo receptor occupancy at GABAA receptor in human assessed as brain concentration causing reduction in [11C]-flumazenil receptor labeling at 2 mg after 1 hr by PET relative to control; type: functional

- fold change (FC) [1]: 0.78
- fold change (FC) [2]: 0.26
- Ki [3]: 0.5 nM
- Ki [4]: 0.12 nM
- fold change (FC) [6]: 0.52
- fold change (FC) [7]: 0.08
- Ki [8]: 0.41 nM
SMILES: CC(C)(O)c1ccc2c(c1)ncn2-c1cccc(-c2ccccc2C#N)c1
- Occ50 [5]: 0.69 mg/kg
- Ki [9]: 0.84 nM

- Efficacy [11]: -0.25
- Ki [12]: 0.58 nM
- Ki [14]: 0.61 nM
- Ki [15]: 0.88 nM
- Efficacy [16]: -0.7
- Ki [17]: 0.66 nM
- Efficacy [18]: -0.11
- Efficacy [19]: 0.1
SMILES: Cc1cc(-c2nnc3c4ccccc4c(OCc4cn(C)nn4)nn23)no1
- Occ50 [10]: 0.25 mg/kg
- Occ50 [13]: 10 ng/mL
- Occ50 [20]: 0.12 mg/kg
- Occ [21]: 50%
